Laboratory results taken from ChEMBL document CHEMBL1201862, “PubChem BioAssay data set” (2004).
Active and inactive are the calls of the source.

Tests used:
[1] = Luminescent dose response cell-based high throughput screening assay for inhibitors of the Janus kinase 2 mutant JAK2V617F. [Related pubchem assays: 1446 (Primary screen.), 1521 (Confirmation assay.), 1486 (Counter screen.)]; type: functional
[2] = system: BJ; experiment: cytotoxicity toward BJ-TERT fibroblasts, dose response, cell-based, RAS-independent, luminescence (AID 1933); type: functional; settings: Homo sapiens
[3] = target: T1, Heat shock factor protein 1 (Mus musculus, UniProt P38532); experiment: inhibition of MG132-induced HSE-luciferase signal, confirmation, cell-based, NIH3T3, luminescence, dose retest (AID 2382); type: functional;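 note: NIH3T3 fibroblasts with HSF1-driven luciferase reporter stressed by proteasome inhibitor MG132; luminescence from HSF1-driven luciferase expression after 8 hours of MG132 stress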
T1 sequence (P38532 whole entry): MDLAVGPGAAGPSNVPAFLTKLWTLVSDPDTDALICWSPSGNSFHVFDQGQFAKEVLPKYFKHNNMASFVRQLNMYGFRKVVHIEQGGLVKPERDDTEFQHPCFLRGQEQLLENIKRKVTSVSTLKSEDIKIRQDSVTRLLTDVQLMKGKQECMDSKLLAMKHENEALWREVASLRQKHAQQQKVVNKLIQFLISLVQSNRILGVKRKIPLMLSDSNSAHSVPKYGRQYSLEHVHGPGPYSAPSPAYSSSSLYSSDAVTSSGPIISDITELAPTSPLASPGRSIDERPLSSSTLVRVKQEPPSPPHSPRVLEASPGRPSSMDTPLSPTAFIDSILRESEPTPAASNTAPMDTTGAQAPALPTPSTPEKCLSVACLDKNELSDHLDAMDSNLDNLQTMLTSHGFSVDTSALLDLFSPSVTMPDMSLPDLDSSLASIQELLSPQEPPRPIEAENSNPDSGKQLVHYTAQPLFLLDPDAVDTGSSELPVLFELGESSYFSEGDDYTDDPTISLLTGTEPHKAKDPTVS

[4] = system: BJ; experiment: cells; type: functional, cell-based; settings: Homo sapiens
[5] = inhibitors of intracellular T. cruzi replication, confirmation, NIH3T3 host cells, beta-gal luminescence (AID 2044); type: functional, cell-based;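 note: intracellular parasites grown in NIH/3T3 mouse fibroblasts as host cells; luminescent beta-galactosidase reporter signal from transgenic T. cruzi replicating inside host cells; inhibitors lower the luminescence signal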
[6] = cytotoxicity toward NIH3T3 fibroblasts, dose response, counter-screen, cell-based, ATP luminescence, mouse fibroblasts (AID 2010); type: functional;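 note: cells exposed to compound for about 90 hours before reading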
[7] = system: BJ; experiment: cytotoxicity toward BJ-TERT-LT-ST fibroblasts, dose response, cell-based, RAS-independent, luminescence (AID 1935); type: functional; settings: Homo sapiens;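 note: BJ fibroblasts immortalized with TERT plus LT and ST oncogenes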
[8] = cytotoxicity toward DRD oncogenic fibroblasts, dose response, cell-based, non-viral oncogenic, luminescence (AID 1934); type: functional; settings: Homo sapiens
[9] = target: T2, Replicative DNA helicase DnaB (Mycobacterium tuberculosis, UniProt P9WMR3); experiment: DnaB intein splicing inhibitors, dose response, biochemical, cell-free fluorescence (AID 449749); type: functional
T2 sequence (P9WMR3 whole entry): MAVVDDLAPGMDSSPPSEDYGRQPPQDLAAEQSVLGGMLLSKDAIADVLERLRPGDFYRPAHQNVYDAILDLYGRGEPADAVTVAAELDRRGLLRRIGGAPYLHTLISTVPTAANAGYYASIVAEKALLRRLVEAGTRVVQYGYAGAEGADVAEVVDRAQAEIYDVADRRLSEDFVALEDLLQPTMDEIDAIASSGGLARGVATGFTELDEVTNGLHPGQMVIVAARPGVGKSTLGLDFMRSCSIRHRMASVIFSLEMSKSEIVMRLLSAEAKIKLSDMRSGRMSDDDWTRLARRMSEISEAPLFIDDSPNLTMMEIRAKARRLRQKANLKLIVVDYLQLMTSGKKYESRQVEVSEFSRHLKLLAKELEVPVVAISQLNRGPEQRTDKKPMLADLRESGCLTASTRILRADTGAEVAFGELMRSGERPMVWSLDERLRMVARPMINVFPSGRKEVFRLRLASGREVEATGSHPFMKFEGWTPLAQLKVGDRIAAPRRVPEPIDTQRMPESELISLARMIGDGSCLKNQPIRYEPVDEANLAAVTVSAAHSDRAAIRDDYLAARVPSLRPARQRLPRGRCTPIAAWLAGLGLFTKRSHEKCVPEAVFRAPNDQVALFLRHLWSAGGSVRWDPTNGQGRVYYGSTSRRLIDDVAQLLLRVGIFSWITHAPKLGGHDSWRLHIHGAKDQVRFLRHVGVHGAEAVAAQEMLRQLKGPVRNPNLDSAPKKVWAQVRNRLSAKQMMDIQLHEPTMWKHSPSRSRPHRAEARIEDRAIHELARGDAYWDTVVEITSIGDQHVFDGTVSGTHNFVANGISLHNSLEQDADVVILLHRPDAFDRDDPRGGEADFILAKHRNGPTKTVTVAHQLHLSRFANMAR

[10] = target: T3, Protein RecA (Mycobacterium tuberculosis, UniProt P9WHJ3); experiment: Fluorescence Cell-Free Homogeneous Dose Retest to Identify Inhibitors of RecA-Intein Splicing Activity. [Related pubchem assays (depositor defined):AID2097, AID2223, AID489010, AID492950]; type: functional
T3 sequence (P9WHJ3 whole entry): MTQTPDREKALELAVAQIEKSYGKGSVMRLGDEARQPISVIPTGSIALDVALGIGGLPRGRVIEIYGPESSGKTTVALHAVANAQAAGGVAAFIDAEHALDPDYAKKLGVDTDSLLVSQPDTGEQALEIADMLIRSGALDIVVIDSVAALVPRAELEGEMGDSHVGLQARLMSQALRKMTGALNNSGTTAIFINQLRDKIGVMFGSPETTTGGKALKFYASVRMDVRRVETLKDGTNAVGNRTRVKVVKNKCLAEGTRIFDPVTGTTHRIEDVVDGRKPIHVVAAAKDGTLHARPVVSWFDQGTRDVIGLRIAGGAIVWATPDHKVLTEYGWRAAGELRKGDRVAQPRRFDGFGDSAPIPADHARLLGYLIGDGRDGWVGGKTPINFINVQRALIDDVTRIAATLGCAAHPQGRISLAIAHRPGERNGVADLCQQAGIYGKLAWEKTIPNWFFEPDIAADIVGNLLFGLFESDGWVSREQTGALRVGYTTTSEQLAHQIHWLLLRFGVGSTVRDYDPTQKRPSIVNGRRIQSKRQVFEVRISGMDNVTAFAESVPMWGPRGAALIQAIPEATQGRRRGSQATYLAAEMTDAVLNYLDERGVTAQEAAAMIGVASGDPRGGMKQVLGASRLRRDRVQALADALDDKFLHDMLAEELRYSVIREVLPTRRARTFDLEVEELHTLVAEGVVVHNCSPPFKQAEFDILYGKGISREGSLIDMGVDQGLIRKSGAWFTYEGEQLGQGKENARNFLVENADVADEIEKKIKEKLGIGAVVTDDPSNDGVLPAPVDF

[11] = target: Paired box protein Pax-8 (Homo sapiens, UniProt Q06710); experiment: inhibitors of PAX8-driven TPO luciferase reporter, dose response, RMG-I cells, cherry-pick (AID 687027); type: functional, cell-based;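 note: luciferase reporter driven by Pax8 target thyroperoxidase promoter measured by SteadyGlo luminescence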
[12] = non-specific cell cytotoxicity, dose response, cytotoxicity control for PAX8 inhibitor project, plate reader, dry powder samples (AID 743021); type: functional, cell-based
[13] = target: T4, Estrogen receptor (Homo sapiens, UniProt P03372);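 note: potency for inhibiting coactivator peptide recruitment to the receptor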
T4 sequence (P03372 whole entry): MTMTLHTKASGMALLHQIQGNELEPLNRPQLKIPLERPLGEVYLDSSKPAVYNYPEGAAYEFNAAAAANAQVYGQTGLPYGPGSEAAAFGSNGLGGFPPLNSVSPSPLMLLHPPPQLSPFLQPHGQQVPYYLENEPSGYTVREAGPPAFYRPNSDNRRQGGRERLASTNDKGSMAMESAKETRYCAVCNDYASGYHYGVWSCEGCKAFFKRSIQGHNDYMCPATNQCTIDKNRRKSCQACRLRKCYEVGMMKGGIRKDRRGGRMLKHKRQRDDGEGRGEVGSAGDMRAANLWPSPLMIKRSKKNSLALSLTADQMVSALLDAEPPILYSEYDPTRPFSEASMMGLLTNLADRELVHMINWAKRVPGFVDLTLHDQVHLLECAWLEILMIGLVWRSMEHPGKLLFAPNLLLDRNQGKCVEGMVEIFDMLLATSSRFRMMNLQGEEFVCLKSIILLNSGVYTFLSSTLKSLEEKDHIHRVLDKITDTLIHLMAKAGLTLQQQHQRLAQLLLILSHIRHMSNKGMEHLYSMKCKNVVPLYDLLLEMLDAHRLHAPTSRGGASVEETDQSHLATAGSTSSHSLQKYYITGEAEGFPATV

[14] = Late stage counterscreen results from the probe development effort to identify activators of signal transducer and activator of transcription 1 (STAT1): luminescence-based cell-based dose response assay to identify cytotoxic compounds.; type: functional
[15] = target: Cytochrome P450 2C19 (Homo sapiens, UniProt P33261); experiment: Cytochrome panel assay with activity outcomes. Panel member name: p450-cyp2c19 Compounds with AC50 equal or less than 10 uM are considered active; type: functional; settings: read-out: AC50
[16] = half-maximal inhibitory concentration for glucagon-like peptide-1 release, STC-1 cell line, dose-response (AID 1117345); type: functional, cell-based
[17] = Glucagon-like peptide 1 release potency, NCI-H716 cell line, dose-response, half-maximal inhibitory concentration (AID 1117344); type: functional, cell-based
[18] = target: Cytochrome P450 2D6 (Homo sapiens, UniProt P10635);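 note: CYP2D6 member of a cytochrome P450 panel assay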
[19] = target: T5, Cytochrome P450 1A2 (Homo sapiens, UniProt P05177);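 note: PubChem cytochrome P450 panel assay, CYP1A2 panel member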
T5 sequence (P05177 whole entry): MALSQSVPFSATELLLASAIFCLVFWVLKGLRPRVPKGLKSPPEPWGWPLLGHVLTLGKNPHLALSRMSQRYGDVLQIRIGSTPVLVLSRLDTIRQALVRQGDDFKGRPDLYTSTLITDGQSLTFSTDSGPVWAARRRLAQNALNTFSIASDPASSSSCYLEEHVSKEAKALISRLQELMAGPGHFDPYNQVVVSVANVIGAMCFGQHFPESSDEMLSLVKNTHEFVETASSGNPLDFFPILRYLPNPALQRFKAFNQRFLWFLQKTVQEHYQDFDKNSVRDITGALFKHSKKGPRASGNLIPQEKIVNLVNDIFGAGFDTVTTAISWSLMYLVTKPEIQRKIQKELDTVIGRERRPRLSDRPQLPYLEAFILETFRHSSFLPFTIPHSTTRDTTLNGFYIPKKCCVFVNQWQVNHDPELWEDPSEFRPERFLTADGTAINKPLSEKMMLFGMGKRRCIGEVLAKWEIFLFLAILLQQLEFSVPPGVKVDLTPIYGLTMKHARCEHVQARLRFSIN

Cytochrome P450 2D6, sequence (P10635 whole entry): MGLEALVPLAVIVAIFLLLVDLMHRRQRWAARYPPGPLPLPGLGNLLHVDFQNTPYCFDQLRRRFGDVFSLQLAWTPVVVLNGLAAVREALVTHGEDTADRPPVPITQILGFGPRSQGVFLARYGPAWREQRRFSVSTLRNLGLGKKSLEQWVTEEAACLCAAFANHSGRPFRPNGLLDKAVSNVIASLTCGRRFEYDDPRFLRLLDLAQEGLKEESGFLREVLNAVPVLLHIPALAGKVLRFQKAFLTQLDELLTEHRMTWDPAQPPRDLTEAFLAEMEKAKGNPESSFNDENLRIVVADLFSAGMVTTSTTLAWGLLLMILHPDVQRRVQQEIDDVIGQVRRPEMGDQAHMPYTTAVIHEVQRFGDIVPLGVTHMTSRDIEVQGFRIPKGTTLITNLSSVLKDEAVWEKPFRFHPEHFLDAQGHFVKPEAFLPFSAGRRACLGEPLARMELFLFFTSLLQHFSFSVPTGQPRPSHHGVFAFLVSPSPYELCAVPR
Paired box protein Pax-8, sequence (Q06710 whole entry): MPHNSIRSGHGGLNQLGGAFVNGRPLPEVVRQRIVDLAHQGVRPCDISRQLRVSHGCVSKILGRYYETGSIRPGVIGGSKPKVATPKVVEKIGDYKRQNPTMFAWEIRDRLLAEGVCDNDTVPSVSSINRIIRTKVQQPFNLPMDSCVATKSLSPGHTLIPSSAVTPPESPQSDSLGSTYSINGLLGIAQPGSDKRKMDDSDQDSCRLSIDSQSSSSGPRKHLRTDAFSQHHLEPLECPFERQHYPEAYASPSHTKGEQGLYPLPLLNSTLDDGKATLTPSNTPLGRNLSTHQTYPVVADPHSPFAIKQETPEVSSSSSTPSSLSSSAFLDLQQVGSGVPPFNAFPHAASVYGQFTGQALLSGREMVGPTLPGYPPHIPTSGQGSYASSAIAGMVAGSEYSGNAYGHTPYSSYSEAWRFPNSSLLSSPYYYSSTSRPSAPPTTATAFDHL
Cytochrome P450 2C19, sequence (P33261 whole entry): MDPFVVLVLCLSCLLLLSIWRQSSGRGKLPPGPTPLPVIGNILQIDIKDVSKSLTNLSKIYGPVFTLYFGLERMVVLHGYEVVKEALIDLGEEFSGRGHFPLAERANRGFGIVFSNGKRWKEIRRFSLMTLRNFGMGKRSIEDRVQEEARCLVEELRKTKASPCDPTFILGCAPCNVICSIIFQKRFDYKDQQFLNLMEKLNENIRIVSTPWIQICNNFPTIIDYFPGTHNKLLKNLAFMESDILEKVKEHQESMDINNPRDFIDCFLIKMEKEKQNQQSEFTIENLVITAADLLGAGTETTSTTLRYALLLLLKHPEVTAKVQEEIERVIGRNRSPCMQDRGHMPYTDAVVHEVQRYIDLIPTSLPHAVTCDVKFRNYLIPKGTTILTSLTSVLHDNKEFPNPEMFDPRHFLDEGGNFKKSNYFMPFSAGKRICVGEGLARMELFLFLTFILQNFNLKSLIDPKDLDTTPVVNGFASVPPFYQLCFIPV

In the case of `Cc1cccc(N(Cc2ccccc2)C(=O)CCl)c1`, the IC50 [1] is reported as 0.649 µM (active), the EC50 [2] is reported as 0.356 µM (inconclusive) and the EC50 [3] is reported as 2.91 µM (active). For the same compound, the EC50 [4] was 3.61 µM (active), the EC50 [5] was 0.352 µM (active) and the EC50 [6] was 2.39 µM (active). For the same compound, the EC50 [7] was > 150 µM (inconclusive), the EC50 [8] was 2.71 µM (inconclusive) and the AC50 [9] was 7.84 µM (active). For the same compound, the EC50 [10] was 0.536 µM (active), the AC50 [11] was 3.46 µM (active) and the AC50 [12] was 4.85 µM (active).
For `COc1ccc2[nH]c3c(c2c1)CCn1c-3nc2ccccc2c1=O`, the IC50 [13] was 17.2 µM (active) and the IC50 [14] was > 55.7 µM (not active).
In the case of `CC[C@H](c1ccc(O)cc1)[C@@H](CC)c1ccc(O)cc1` [HEXESTROL], the AC50 [15] is reported as 3.16 µM (inconclusive), the IC50 [16] is reported as 6.88 µM (inactive) and the IC50 [17] is reported as > 40 µM (inactive). The AC50 [18] was 15.8 µM (inconclusive) and the AC50 [19] was 12.6 µM (inconclusive).
